# According to US12240862B2, “Inhibitors of peptidylarginine deiminases” (Gilead Sciences, Inc., priority 2020, dated 2025):
# Target: T1, human PAD4 (Homo sapiens, UniProt Q9UM07)
# T1 construct: human PAD4 (NM_012387), A2P663, was PCR amplified; His-SUMO (N, cleaved yes); made in house; host or cells: E. coli BL21(DE3)
# Test: In vitro PAD4 BAEE biochemical assay
# Conditions: human PAD4, BAEE substrate; 5 nM PAD4, 2 mM calcium chloride, 3 mM BAEE; geometric mean of multiple experiments
# Outline: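 Ammonia generated from BAEE serves as the readout, measured by o-phthalaldehyde after EDTA termination. Final conditions: 5 nM human PAD4 (SUMO tag cleaved), 2 mM CaCl2, 3 mM BAEE, pH 7.6 MOPS buffer, 25 °C for 2 h following a 30-min compound preincubation.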
# T1 sequence (Q9UM07 2-663): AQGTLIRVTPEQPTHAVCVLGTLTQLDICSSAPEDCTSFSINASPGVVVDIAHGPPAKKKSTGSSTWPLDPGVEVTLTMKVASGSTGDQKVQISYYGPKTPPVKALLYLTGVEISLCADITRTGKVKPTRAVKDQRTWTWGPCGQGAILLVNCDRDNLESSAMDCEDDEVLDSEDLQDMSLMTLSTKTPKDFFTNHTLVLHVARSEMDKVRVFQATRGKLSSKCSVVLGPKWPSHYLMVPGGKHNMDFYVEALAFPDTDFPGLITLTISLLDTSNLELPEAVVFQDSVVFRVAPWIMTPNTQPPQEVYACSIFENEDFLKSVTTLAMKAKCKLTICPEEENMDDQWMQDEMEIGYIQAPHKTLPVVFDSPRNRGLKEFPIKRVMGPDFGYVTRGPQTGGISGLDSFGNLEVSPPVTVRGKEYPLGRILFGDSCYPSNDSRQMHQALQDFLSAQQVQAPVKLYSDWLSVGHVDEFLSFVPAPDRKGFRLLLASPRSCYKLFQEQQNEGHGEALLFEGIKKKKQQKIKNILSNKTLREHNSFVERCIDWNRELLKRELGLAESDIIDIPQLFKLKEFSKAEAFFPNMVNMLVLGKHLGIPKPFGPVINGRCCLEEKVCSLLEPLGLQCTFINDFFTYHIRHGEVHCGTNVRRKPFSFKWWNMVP
row,IC50 [nM],SMILES
1,401,CNC(=O)[C@@H](C)Oc1ccc2cc(-c3nc4cc(C(=O)N5CCC[C@@H](N)C5)cc(OC)n4c3C)n(CC3CC3)c2n1 [Example 618]
2,65.6,"COc1cc(C(=O)N2[C@H]3CC[C@@H]2[C@H](N)C3)cc2nc(-c3cc4ccc(C(C)Cc5nnc(C)o5)nc4n3CC3CC3)c(C)n12 (some centres unmarked) [Example 516, [(1~{R},2~{R},4~{S})-2-amino-7-azabicyclo [2.2.1]heptan-7-yl]-[2-[1-(cyclopropylmethyl)-6-[1-(5-methyl-1,3,4-oxadiazol-2-yl)propan-2-yl]pyrrolo[2,3-b]pyridin-2-yl]-5-methoxy-3-methylimidazo[1,2-a]pyridin-7-yl]methanone]"
3,21.8,"COc1cc(C(=O)N2[C@H]3CC[C@@H]2[C@H](N)C3)cc2nc(-c3cc4ccc(N5CCOCCS5(=O)=O)nc4n3CC3CC3)c(C)n12 [Example 451, [(1~{R},2~{R},4~{S})-2-amino-7-azabicyclo [2.2.1]heptan-7-yl]-[2-[1-(cyclopropylmethyl)-6-(4,4-dioxo-1,4,5-oxathiazepan-5-yl)pyrrolo [2,3-b]pyridin-2-yl]-5-methoxy-3-methylimidazo[1,2-a]pyridin-7-yl]methanone]"
4,42300,"CCc1ccc2cc(-c3nc4cc(C(=O)N5[C@H]6CC[C@@H]5[C@H](N)C6)cc(OC)n4c3C)[nH]c2n1 [Example 506, [(1~{R},2~{R},4~{S})-2-amino-7-azabicyclo [2.2.1]heptan-7-yl]-[2-(6-ethyl-1~{H}-pyrrolo[2,3-b]pyridin-2-yl)-5-methoxy-3-methylimidazo[1,2-a]pyridin-7-yl]methanone]"
5,2270,"COc1ccc2cc(-c3nc4cc(C(=O)N5CCC[C@@H](N)C5)cc(OC)n4c3C)n(CC3CC3)c2n1 [Example 629, [(3~{R})-3-aminopiperidin-1-yl]-[2-[1-(cyclopropylmethyl)-6-methoxypyrrolo[2,3-b]pyridin-2-yl]-5-methoxy-3-methylimidazo[1,2-a]pyridin-7-yl]methanone]"
6,412,"CCc1ccc2cc(-c3nc4cc(C(=O)N5CC[C@@H](OC)[C@@H](N)C5)cc(OC)n4c3C)n(CC3CC3)c2n1 [Example 579, [(3~{S},4~{R})-3-amino-4-methoxypiperidin-1-yl]-[2-[1-(cyclopropylmethyl)-6-ethylpyrrolo[2,3-b]pyridin-2-yl]-5-methoxy-3-methylimidazo[1,2-a]pyridin-7-yl]methanone]"
7,3670,"COc1cc(C(=O)N2[C@H]3CC[C@@H]2[C@H](N)C3)cc2nc(-c3cc4ccc(-c5ccccc5C(F)(F)F)nc4n3CC3CC3)c(C)n12 [Example 549, [(1~{R},2~{R},4~{S})-2-amino-7-azabicyclo [2.2.1]heptan-7-yl]-[2-[1-(cyclopropylmethyl)-6-[2-(trifluoromethyl)phenyl]pyrrolo[2,3-b]pyridin-2-yl]-5-methoxy-3-methylimidazo[1,2-a]pyridin-7-yl]methanone]"
8,726,"COc1cc(C(=O)N2C[C@H](N)CC[C@@H]2C)cc2nc(-c3cc4ccc(-c5c(C)n[nH]c5C)nc4n3CC3CC3)c(C)n12 [Example 611, [(2~{S},5~{R})-5-amino-2-methylpiperidin-1-yl]-[2-[1-(cyclopropylmethyl)-6-(3,5-dimethyl-1~{H}-pyrazol-4-yl)pyrrolo[2,3-b]pyridin-2-yl]-5-methoxy-3-methylimidazo[1,2-a]pyridin-7-yl]methanone]"
9,193,"COc1cc(C(=O)N2[C@H]3CC[C@@H]2[C@H](N)C3)cc2nc(-c3cc4ccc(C5=CC(=O)NCC5)nc4n3CC3CC3)c(C)n12 [Example 561, 4-[2-[7-[(1~{R},2~{R}, 4~{S})-2-amino-7-azabicyclo[2.2.1]heptane-7-carbonyl]-5-methoxy-3-methylimidazo[1,2-a]pyridin-2-yl]-1-(cyclopropylmethyl)pyrrolo[2,3-b]pyridin-6-yl]-2,3-dihydro-1~{H}-pyridin-6-one]"

# More lines, now with the values behind:
row,SMILES,IC50 [nM]
1,"COc1cc(C(=O)N2[C@H]3CC[C@@H]2[C@H](N)C3)cc2nc(-c3cc4ccc([C@@H](C)NC(=O)C(C)(C)O)nc4n3CC3CC3)c(C)n12 [Example 126, ~{N}-[(1~{R})-1-[2-[7-[(1~{R},2~{R},4~{S})-2-amino-7-azabicyclo[2.2.1]heptane-7-carbonyl]-5-methoxy-3-methylimidazo [1,2-a]pyridin-2-yl]-1-(cyclopropylmethyl)pyrrolo [2,3-b]pyridin-6-yl]ethyl]-2-hydroxy-2-methylpropanamide]",45.9
2,"COc1cc(C(=O)N2C[C@@H]3CC[C@H]2[C@H](N)C3)cc2nc(-c3cc4ccc(N(C(F)F)S(C)(=O)=O)nc4n3CC3CC3)c(C)n12 [Example 377, ~{N}-[2-[7-[(1~{R},4~{S}, 6~{R})-6-amino-2-azabicyclo[2.2.2]octane-2-carbonyl]-5-methoxy-3-methylimidazo[1,2-a]pyridin-2-yl]-1-(cyclopropylmethyl)pyrrolo [2,3-b]pyridin-6-yl]-~{N}-(difluoromethyl) methanesulfonamide]",18200
3,"COc1cc(C(=O)N2[C@H]3CC[C@@H]2[C@H](N)C3)cc2nc(-c3cc4ccc([C@@H](C)NC(=O)c5cncs5)nc4n3CC3CC3)c(C)n12 [Example 72, ~{N}-[(1~{R})-1-[2-[7-[(1~{R},2~{R},4~{S})-2-amino-7-azabicyclo[2.2.1]heptane-7-carbonyl]-5-methoxy-3-methylimidazo [1,2-a]pyridin-2-yl]-1-(cyclopropylmethyl)pyrrolo [2,3-b]pyridin-6-yl]ethyl]-1,3-thiazole-5-carboxamide]",32.7
4,"COc1cc(C(=O)N2[C@H]3CC[C@@H]2[C@H](N)C3)cc2nc(-c3cc4ccc([C@@H](C)NC(=O)[C@@H](C)OC)nc4n3CC3CC3)c(C)n12 [Example 40, (2~{R})-~{N}-[(1~{R})-1-[2-[7-[(1~{R},2~{R},4~{S})-2-amino-7-azabicyclo [2.2.1]heptane-7-carbonyl]-5-methoxy-3-methylimidazo [1,2-a]pyridin-2-yl]-1-(cyclopropylmethyl)pyrrolo[2,3-b]pyridin-6-yl]ethyl]-2-methoxypropanamide]",64.5
5,"COc1cc(C(=O)N2[C@H]3CC[C@@H]2[C@H](N)C3)cc2nc(-c3cc4ccc(N(C(F)F)S(C)(=O)=O)nc4n3CC3CC3)c(C3CC3)n12 [Example 385, ~{N}-[2-[7-[(1~{R},2~{R}, 4~{S})-2-amino-7-azabicyclo[2.2.1]heptane-7-carbonyl]-3-cyclopropyl-5-methoxyimidazo[1,2-a]pyridin-2-yl]-1-(cyclopropylmethyl)pyrrolo [2,3-b]pyridin-6-yl]-~{N}-(difluoromethyl) methanesulfonamide]",156
6,"COC(=O)C12CC(C(=O)N[C@H](C)c3ccc4cc(-c5nc6cc(C(=O)N7[C@H]8CC[C@@H]7[C@H](N)C8)cc(OC)n6c5C)n(CC5CC5)c4n3)(C1)C2 [Example 159, methyl 3-[[(1~{R})-1-[2-[7-[(1~{R},2~{R},4~{S})-2-amino-7-azabicyclo[2.2.1]heptane-7-carbonyl]-5-methoxy-3-methylimidazo [1,2-a]pyridin-2-yl]-1-(cyclopropylmethyl)pyrrolo [2,3-b]pyridin-6-yl]ethyl]carbamoyl]bicyclo[1.1.1] pentane-1-carboxylate]",58.3
7,"COc1cc(C(=O)N2[C@H]3CC[C@@H]2[C@H](N)C3)cc2nc(-c3cc4ccc([C@@H](C)NC(=O)N5CCC(F)(F)CC5)nc4n3CC3CC3)c(C)n12 [Example 207, ~{N}-[(1~{R})-1-[2-[7-[(1~{R},2~{R},4~{S})-2-amino-7-azabicyclo[2.2.1]heptane-7-carbonyl]-5-methoxy-3-methylimidazo [1,2-a]pyridin-2-yl]-1-(cyclopropylmethyl)pyrrolo [2,3-b]pyridin-6-yl]ethyl]-4,4-difluoropiperidine-1-carboxamide]",46
8,"COc1cc(C(=O)N2[C@H]3CC[C@@H]2[C@H](N)C3)cc2nc(-c3cc4ccc([C@@H](C)NC(=O)C5(CO)CC5)nc4n3CC3CC3)c(C)n12 [Example 128, ~{N}-[(1~{R})-1-[2-[7-[(1~{R},2~{R},4~{S})-2-amino-7-azabicyclo[2.2.1]heptane-7-carbonyl]-5-methoxy-3-methylimidazo [1,2-a]pyridin-2-yl]-1-(cyclopropylmethyl)pyrrolo [2,3-b]pyridin-6-yl]ethyl]-1-(hydroxymethyl) cyclopropane-1-carboxamide]",35.8
9,"COc1cc(C(=O)N2[C@H]3CC[C@@H]2[C@H](N)C3)cc2nc(-c3cc4ccc([C@@H](C)NC(=O)N5CC(C#N)C5)nc4n3CC3CC3)c(C)n12 [Example 234, ~{N}-[(1~{R})-1-[2-[7-[(1~{R},2~{R},4~{S})-2-amino-7-azabicyclo[2.2.1]heptane-7-carbonyl]-5-methoxy-3-methylimidazo [1,2-a]pyridin-2-yl]-1-(cyclopropylmethyl)pyrrolo [2,3-b]pyridin-6-yl]ethyl]-3-cyanoazetidine-1-carboxamide]",149
10,"COc1cc(C(=O)N2[C@H]3CC[C@@H]2[C@H](N)C3)cc2nc(-c3cc4ccc([C@@H](C)NC(=O)c5cc6n(c5)CCOC6)nc4n3CC3CC3)c(C)n12 [Example 62, ~{N}-[(1~{R})-1-[2-[7-[(1~{R},2~{R}, 4~{S})-2-amino-7-azabicyclo[2.2.1]heptane-7-carbonyl]-5-methoxy-3-methylimidazo [1,2-a]pyridin-2-yl]-1-(cyclopropylmethyl)pyrrolo[2,3-b]pyridin-6-yl]ethyl]-3,4-dihydro-1~{H}-pyrrolo [2,1-c][1,4]oxazine-7-carboxamide]",48.3
11,"COc1cc(C(=O)N2CCC3(CCCNC3)C2)cc2nc(-c3cc4ccc([C@@H](C)NC(=O)C56CC(F)(C5)C6)nc4n3CC3CC3)c(C)n12 (some centres unmarked) [Example 5, ~{N}-[(1~{R})-1-[1-(cyclopropylmethyl)-2-[7-(2,9-diazaspiro[4.5]decane-2-carbonyl)-5-methoxy-3-methylimidazo[1,2-a]pyridin-2-yl]pyrrolo [2,3-b]pyridin-6-yl]ethyl]-3-fluorobicyclo[1.1.1] pentane-1-carboxamide]",19000
